In brackets after ≈: the same amount, converted by molar mass.
Tests used:
Format in all cases: functional
Citrobacter freundii [1] = assay: Antibacterial activity against ceftazidime-nonsusceptible Citrobacter freundii by CLSI M7-A7 broth microdilution method
Morganella morganii [2] = assay: Antibacterial activity against ceftazidime-susceptible Morganella morganii by CLSI M7-A7 broth microdilution method
Proteus mirabilis [3] = assay: Antibacterial activity against ceftazidime-susceptible Proteus mirabilis by CLSI M7-A7 broth microdilution method
Serratia marcescens [4] = assay: Antibacterial activity against ceftazidime-susceptible Serratia marcescens assessed as susceptible isolates by CLSI M7-A7 broth microdilution method
Acinetobacter [5] = assay: Antibacterial activity against multidrug-resistant Acinetobacter by CLSI M7-A7 broth microdilution method
Enterobacteriaceae [6] = assay: Antibacterial activity against ceftazidime-nonsusceptible Enterobacteriaceae assessed as resistant isolates by CLSI M7-A7 broth microdilution method
Enterobacteriaceae [7] = assay: Antibacterial activity against ceftazidime-nonsusceptible Enterobacteriaceae by CLSI M7-A7 broth microdilution method
Enterobacter cloacae [8] = assay: Antibacterial activity against ceftazidime-susceptible Enterobacter cloacae assessed as resistant isolates by CLSI M7-A7 broth microdilution method
Citrobacter freundii [9] = assay: Antibacterial activity against ceftazidime-susceptible Citrobacter freundii by CLSI M7-A7 broth microdilution method
Enterobacter cloacae [10] = assay: Antibacterial activity against ceftazidime-nonsusceptible Enterobacter cloacae by CLSI M7-A7 broth microdilution method
Proteus mirabilis [11] = assay: Antibacterial activity against ceftazidime-susceptible Proteus mirabilis assessed as resistant isolates by CLSI M7-A7 broth microdilution method
Enterobacter cloacae [12] = assay: Antibacterial activity against ceftazidime-nonsusceptible Enterobacter cloacae assessed as resistant isolates by CLSI M7-A7 broth microdilution method
Enterobacteriaceae [13] = assay: Antibacterial activity against ceftazidime-susceptible Enterobacteriaceae by CLSI M7-A7 broth microdilution method
Haemophilus influenzae [14] = assay: Antibacterial activity against beta lactamase-negative Haemophilus influenzae assessed as susceptible isolates by CLSI M7-A7 broth microdilution method
Enterobacteriaceae [15] = assay: Antibacterial activity against ceftazidime-nonsusceptible Enterobacteriaceae assessed as susceptible isolates by CLSI M7-A7 broth microdilution method
Morganella morganii [16] = assay: Antibacterial activity against ceftazidime-susceptible Morganella morganii assessed as susceptible isolates by CLSI M7-A7 broth microdilution method
Enterobacter cloacae [17] = assay: Antibacterial activity against ceftazidime-susceptible Enterobacter cloacae by CLSI M7-A7 broth microdilution method
Escherichia coli [18] = assay: Antibacterial activity against ceftazidime-nonsusceptible Escherichia coli assessed as resistant isolates by CLSI M7-A7 broth microdilution method
Morganella morganii [19] = assay: Antibacterial activity against ceftazidime-susceptible Morganella morganii assessed as resistant isolates by CLSI M7-A7 broth microdilution method
Haemophilus influenzae [20] = assay: Antibacterial activity against beta lactamase-positive Haemophilus influenzae assessed as susceptible isolates by CLSI M7-A7 broth microdilution method
Escherichia coli [21] = assay: Antibacterial activity against ceftazidime-nonsusceptible Escherichia coli assessed as susceptible isolates by CLSI M7-A7 broth microdilution method
Acinetobacter [22] = assay: Antibacterial activity against multidrug-resistant Acinetobacter assessed as resistant isolates by CLSI M7-A7 broth microdilution method
Klebsiella pneumoniae [23] = assay: Antibacterial activity against ceftazidime-susceptible Klebsiella pneumoniae assessed as susceptible isolates by CLSI M7-A7 broth microdilution method
Citrobacter freundii [24] = assay: Antibacterial activity against ceftazidime-susceptible Citrobacter freundii assessed as susceptible isolates by CLSI M7-A7 broth microdilution method
Acinetobacter [25] = assay: Antibacterial activity against multidrug-resistant Acinetobacter assessed as susceptible isolates by CLSI M7-A7 broth microdilution method
Serratia marcescens [26] = assay: Antibacterial activity against ceftazidime-susceptible Serratia marcescens assessed as resistant isolates by CLSI M7-A7 broth microdilution method
Klebsiella pneumoniae [27] = assay: Antibacterial activity against ceftazidime-susceptible Klebsiella pneumoniae assessed as resistant isolates by CLSI M7-A7 broth microdilution method
Enterobacter cloacae [28] = assay: Antibacterial activity against ceftazidime-nonsusceptible Enterobacter cloacae assessed as susceptible isolates by CLSI M7-A7 broth microdilution method
Haemophilus influenzae [29] = assay: Antibacterial activity against beta lactamase-positive Haemophilus influenzae by CLSI M7-A7 broth microdilution method
Escherichia coli [30] = assay: Antibacterial activity against ceftazidime-susceptible Escherichia coli assessed as resistant isolates by CLSI M7-A7 broth microdilution method
Providencia sp. [31] = assay: Antibacterial activity against ceftazidime-susceptible Providencia sp. by CLSI M7-A7 broth microdilution method
Klebsiella pneumoniae [32] = assay: Antibacterial activity against ceftazidime-nonsusceptible Klebsiella pneumoniae assessed as resistant isolates by CLSI M7-A7 broth microdilution method
Haemophilus influenzae [33] = assay: Antibacterial activity against beta lactamase-positive Haemophilus influenzae assessed as resistant isolates by CLSI M7-A7 broth microdilution method
Citrobacter freundii [34] = assay: Antibacterial activity against ceftazidime-susceptible Citrobacter freundii assessed as resistant isolates by CLSI M7-A7 broth microdilution method
Haemophilus influenzae [35] = assay: Antibacterial activity against beta lactamase-negative Haemophilus influenzae by CLSI M7-A7 broth microdilution method
Haemophilus influenzae [36] = assay: Antibacterial activity against beta lactamase-negative Haemophilus influenzae assessed as resistant isolates by CLSI M7-A7 broth microdilution method
Enterobacteriaceae [37] = assay: Antibacterial activity against ceftazidime-susceptible Enterobacteriaceae assessed as resistant isolates by CLSI M7-A7 broth microdilution method
Citrobacter freundii [38] = assay: Antibacterial activity against ceftazidime-nonsusceptible Citrobacter freundii assessed as resistant isolates by CLSI M7-A7 broth microdilution method
Proteus mirabilis [39] = assay: Antibacterial activity against ceftazidime-susceptible Proteus mirabilis assessed as susceptible isolates by CLSI M7-A7 broth microdilution method
Klebsiella pneumoniae [40] = assay: Antibacterial activity against ceftazidime-nonsusceptible Klebsiella pneumoniae by CLSI M7-A7 broth microdilution method
Escherichia coli [41] = assay: Antibacterial activity against ceftazidime-susceptible Escherichia coli by CLSI M7-A7 broth microdilution method
Enterobacter cloacae [42] = assay: Antibacterial activity against ceftazidime-susceptible Enterobacter cloacae assessed as susceptible isolates by CLSI M7-A7 broth microdilution method
Escherichia coli [43] = assay: Antibacterial activity against ceftazidime-susceptible Escherichia coli assessed as susceptible isolates by CLSI M7-A7 broth microdilution method
Klebsiella pneumoniae [44] = assay: Antibacterial activity against ceftazidime-nonsusceptible Klebsiella pneumoniae assessed as susceptible isolates by CLSI M7-A7 broth microdilution method
Acinetobacter [45] = assay: Antibacterial activity against imipenem-susceptible Acinetobacter assessed as resistant isolates by CLSI M7-A7 broth microdilution method
Escherichia coli [46] = assay: Antibacterial activity against ceftazidime-nonsusceptible Escherichia coli by CLSI M7-A7 broth microdilution method
Acinetobacter [47] = assay: Antibacterial activity against imipenem-susceptible Acinetobacter by CLSI M7-A7 broth microdilution method
Providencia sp. [48] = assay: Antibacterial activity against ceftazidime-susceptible Providencia sp. assessed as resistant isolates by CLSI M7-A7 broth microdilution method
Providencia sp. [49] = assay: Antibacterial activity against ceftazidime-susceptible Providencia sp. assessed as susceptible isolates by CLSI M7-A7 broth microdilution method
Klebsiella pneumoniae [50] = assay: Antibacterial activity against ceftazidime-susceptible Klebsiella pneumoniae by CLSI M7-A7 broth microdilution method
Serratia marcescens [51] = assay: Antibacterial activity against ceftazidime-susceptible Serratia marcescens by CLSI M7-A7 broth microdilution method
Enterobacteriaceae [52] = assay: Antibacterial activity against ceftazidime-susceptible Enterobacteriaceae assessed as susceptible isolates by CLSI M7-A7 broth microdilution method
Citrobacter freundii [53] = assay: Antibacterial activity against ceftazidime-nonsusceptible Citrobacter freundii assessed as susceptible isolates by CLSI M7-A7 broth microdilution method
Acinetobacter [54] = assay: Antibacterial activity against imipenem-susceptible Acinetobacter assessed as susceptible isolates by CLSI M7-A7 broth microdilution method

SMILES: CCN1CCN(C(=O)N[C@@H](C(=O)N[C@@H]2C(=O)N3[C@@H]2SC(C)(C)[C@@H]3C(=O)O)c2ccccc2)C(=O)C1=O [PIPERACILLIN]
- MIC50 (Citrobacter freundii [1]): 32 µg/mL (≈ 61.8 µM)
- MIC90 (Citrobacter freundii [1]): > 64 µg/mL
- MIC (Morganella morganii [2]): ≤ 0.5 µg/mL
- MIC50 (Morganella morganii [2]): ≤ 0.5 µg/mL
- MIC90 (Morganella morganii [2]): 1 µg/mL (≈ 1.93 µM)
- MIC (Proteus mirabilis [3]): ≤ 0.5 µg/mL
- MIC50 (Proteus mirabilis [3]): ≤ 0.5 µg/mL
- MIC90 (Proteus mirabilis [3]): 1 µg/mL (≈ 1.93 µM)
- Activity (Serratia marcescens [4]): 93.2%
- MIC50 (Acinetobacter [5]): > 64 µg/mL
- Activity (Enterobacteriaceae [6]): 38.6%
- MIC50 (Enterobacteriaceae [7]): 32 µg/mL (≈ 61.8 µM)
- MIC90 (Enterobacteriaceae [7]): > 64 µg/mL
- Activity (Enterobacter cloacae [8]): 2%
- MIC50 (Citrobacter freundii [9]): 2 µg/mL (≈ 3.86 µM)
- MIC90 (Citrobacter freundii [9]): 4 µg/mL (≈ 7.73 µM)
- MIC50 (Enterobacter cloacae [10]): > 64 µg/mL
- MIC90 (Enterobacter cloacae [10]): > 64 µg/mL
- Activity (Proteus mirabilis [11]): 0%
- Activity (Enterobacter cloacae [12]): 54.3%
- MIC50 (Enterobacteriaceae [13]): 2 µg/mL (≈ 3.86 µM)
- MIC90 (Enterobacteriaceae [13]): 4 µg/mL (≈ 7.73 µM)
- Activity (Haemophilus influenzae [14]): 100%
- Activity (Enterobacteriaceae [15]): 43.2%
- Activity (Morganella morganii [16]): 100%
- MIC50 (Enterobacter cloacae [17]): 2 µg/mL (≈ 3.86 µM)
- MIC90 (Enterobacter cloacae [17]): 4 µg/mL (≈ 7.73 µM)
- Activity (Escherichia coli [18]): 17.5%
- Activity (Morganella morganii [19]): 0%
- Activity (Haemophilus influenzae [20]): 99%
- Activity (Escherichia coli [21]): 68.3%
- Activity (Acinetobacter [22]): 87.5%
- Activity (Klebsiella pneumoniae [23]): 97.1%
- Activity (Citrobacter freundii [24]): 100%
- Activity (Acinetobacter [25]): 0%
- Activity (Serratia marcescens [26]): 3.4%
- Activity (Klebsiella pneumoniae [27]): 0.5%
- Activity (Enterobacter cloacae [28]): 25.7%
- MIC (Haemophilus influenzae [29]): ≤ 0.03 µg/mL
- MIC50 (Haemophilus influenzae [29]): ≤ 0.03 µg/mL
- MIC90 (Haemophilus influenzae [29]): 0.06 µg/mL (≈ 0.116 µM)
- Activity (Escherichia coli [30]): 2.3%
- MIC50 (Providencia sp. [31]): 2 µg/mL (≈ 3.86 µM)
- MIC90 (Providencia sp. [31]): 16 µg/mL (≈ 30.9 µM)
- Activity (Klebsiella pneumoniae [32]): 62.1%
- Activity (Haemophilus influenzae [33]): 1%
- Activity (Citrobacter freundii [34]): 0%
- MIC (Haemophilus influenzae [35]): ≤ 0.03 µg/mL
- MIC50 (Haemophilus influenzae [35]): ≤ 0.03 µg/mL
- MIC90 (Haemophilus influenzae [35]): 0.06 µg/mL (≈ 0.116 µM)
- Activity (Haemophilus influenzae [36]): 0%
- Activity (Enterobacteriaceae [37]): 1.6%
- Activity (Citrobacter freundii [38]): 39.4%
- Activity (Proteus mirabilis [39]): 100%
- MIC50 (Klebsiella pneumoniae [40]): > 64 µg/mL
- MIC90 (Klebsiella pneumoniae [40]): > 64 µg/mL
- MIC50 (Escherichia coli [41]): 1 µg/mL (≈ 1.93 µM)
- MIC90 (Escherichia coli [41]): 4 µg/mL (≈ 7.73 µM)
- Activity (Enterobacter cloacae [42]): 98%
- Activity (Escherichia coli [43]): 96.5%
- Activity (Klebsiella pneumoniae [44]): 24.2%
- Activity (Acinetobacter [45]): 21.3%
- MIC50 (Escherichia coli [46]): 16 µg/mL (≈ 30.9 µM)
- MIC90 (Escherichia coli [46]): > 64 µg/mL
- MIC50 (Acinetobacter [47]): 8 µg/mL (≈ 15.5 µM)
- MIC90 (Acinetobacter [47]): > 64 µg/mL
- Activity (Providencia sp. [48]): 3.7%
- Activity (Providencia sp. [49]): 92.6%
- MIC50 (Klebsiella pneumoniae [50]): 2 µg/mL (≈ 3.86 µM)
- MIC90 (Klebsiella pneumoniae [50]): 8 µg/mL (≈ 15.5 µM)
- MIC50 (Serratia marcescens [51]): 2 µg/mL (≈ 3.86 µM)
- MIC90 (Serratia marcescens [51]): 16 µg/mL (≈ 30.9 µM)
- Activity (Enterobacteriaceae [52]): 97%
- Activity (Citrobacter freundii [53]): 24.2%
- Activity (Acinetobacter [54]): 68.1%

Source: ChEMBL document CHEMBL1671626, “In vitro profiling of ceftaroline against a collection of recent bacterial clinical isolates from across the United States” (2008)
